Data from patent US11932654B2, “Nimbolide analogs as anti-cancer agents and preparation thereof” (priority 2018, dated 2024).

Experiments:
p21 = experiment: Western blotting analysis on Panc-1 cell line, p21; format: cell-based; settings: panc-1 cells, various concentrations, 24 h, Western blot
Experimental: Western blotting analysis of IM-1372-Kn-13 on Panc-1 cell line: The cells were lysed in RIPA buffer (50 mM-tris (PH-7.4), 150 Min-Nacl, 1%-NP-40, 0.1%-SDS, 0.5%-Sodium-deoxycholate, 1 mM EDTA, 5 mM NaF, 5 mM Na—O-vandate, 1 mM PMSF, Protease inhibitor cocktail. The lysates were cleared by centrifugation at […] and concentration of protein was estimated by bradford assay. For Western blot analysis, equivalent amount of protein was resolved in SDS-PAGE and then transferred to polyvinylidene difluoride ([…]) membrane. Ti avoid non specific binding of antibodies, the membranes were blocked using 3% BSA in TBS with 0.5% Tween (TBST) for 1 h at room temperature. The membranes were then incubated in primary antibody overnight at 4° C. After removing excess primary antibody bound to membranes, blots were incubated with secondary anti body. Then the signal emitted was captured using chemiluminescence substrate.

[1] = tested on: Panc-1 pancreatic cancer cell line; experiment: In vitro anticancer activity, SRB assay, Panc-1; format: cell-based; settings: Homo sapiens, 48 h, NA = Not Active
Experimental: (§1) Cell culture: Human lung adenocarcinoma cell line (A549 cell line), pancreatic cancer cell line (Panc-1, Pan-02), prostate cancer cell line (DU145, PC3), Brest cancer cell line (MCF-7) was grown in DIEM (Dulbecco's modifications of eagle's medium with L-glutamine & 4.5 g/L glucose) supplemented with fetal bovine serum in a humidified atmosphere of a 5% CO2 at 37° C.
(§2) In vitro anticancer activity: Cells were harvested from exponential phase cultures by trypsinization, counted and plated in 96-well plate. Optimal seeding densities for different cell lines in each plate were 5000 cells per well. After 24 h cells were treated with \ the newly synthesized compound at a dose range of 0.1-100 μm final concentration. Thereafter, cells were allowed to grow for 48 h before determination of cell survival by the SRB assay. Then the cells were fixed with 10% cold trichloroacetic acid for 1 h at 4° C. After two washes with deionized water, fixed cells were stained with 50 μL of SRB solution (1% in acetic acid) for 30 min and subsequently washed twice with 1% acetic acid to remove unbound stain. The plates were left to dry at room temperature and bound stain was solubilized with 100 μL of 10 mM buffered Tris base for reading the […] at 540 nm.

[2] = tested on: Pan-02 cells xenograft tumors; experiment: Pancreatic cancer xenograft model, anti-tumor activity; format: in vivo, nude mice; settings: for Tumor Volume: 5 doses in 12 days, Pan-02 xenograft, mean ± SE
Experimental: In vivo studies: Materials and methods: Animals and cell lines: Healthy 8-10 week old nude mice of either sex, weighing between 20 g and 25 g were used as experimental animals for tumor induction. All animals were maintained under standardized animal house conditions (12 h light and 12 h dark condition) at controlled temperature (22±1° C.) and relative humidity (60-70%) in institutional registered animal house that was approved by Committee for the Purpose of Control and Supervision of Experiments on Animals (CPCSEA). They were maintained with standard pellet diet and water ad libitum. The institutional animal ethics committee approved the experimental protocol. CPCSEA guidelines were adhered to during the maintenance of animals and experiments. Pancreatic cancer cell line (Pan-02) was obtained from American Type Culture Collection and was cultured in RPMI medium.
Establishment of Pancreatic cancer xenograft model: To establish tumor in mice, Pan-02 cells (7×10^6) were suspended in 1:1 RPMI medium mixed with matrigel and subcutaneously implanted on right flank of the each mice. The injection sites were examined daily for the appearance of tumors. On 10th day these animals were randomized and divided into 3 groups (6 mice in each group). Group I served as control group received 20% ethanol three times in a week. Test group animals in Group II and III received intratumoral injection of IM-1372-Kn-13 at 10 mg and 25 mg/kg body weight respectively three times in a week. All groups received 5 repeated doses in 12 days. Mice were weighed and tumor volumes were measured 3 times a week by Vernier caliper. Tumor volume in individual mice was calculated by the following formula. 0.5×L (W)^2, Where L is length, W is width of the tumor. The control group animals were euthanized when tumor volume is reached heavier to animal. One-week after completion of treatment period, the animals were sacrificed, and tumors were excised, fixed, and embedded in paraffin. At the end of treatment, blood samples were collected to perform clinical biochemistry.

[3] = tested on: MCF-7 breast cancer cell line; experiment: In vitro anticancer activity, SRB assay, MCF-7; format: cell-based; settings: Homo sapiens, MCF7, 48 h, NA = Not Active
Experimental: as §1, §2

COC(=O)C[C@H]1[C@]2(C)C3=C(C)[C@H](C4=CC5OC4C(C(=O)OC)=C5C(=O)OC)C[C@@H]3O[C@@H]2[C@@H]2OC(=O)[C@]3(C)C=CC(=O)[C@@]1(C)C23 (stereo partly shown) [A4]
expression of p21 protein (p21): reduced
IC50 [1]: 9.08 µM
Tumor Volume ([2]; 10 mg/kg intratumoral, nude mice): 181.306 ± 12.7 mm^3
body weight and food intake ([2]; 10 mg/kg, 25 mg/kg body weight, intratumoral, nude mice): did not cause any loss in body weight and food intake
Tumor Volume ([2]; 25 mg/kg intratumoral, nude mice): 109.46 ± 7.1 mm^3
average volume of tumors compared to vehicle-treated animals ([2]; 10 and 25 mg/kg intratumoral, p<0.0001): significantly decreased
IC50 [3]: 12.5 µM
